PubChem BioAssay (NCI)
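96-well plates; 48 h exposure; 5 concentrations. Endpoints by linear interpolation between flanking doses. Not reached: highest tested concentration assigned. Abbreviation: GI50, concentration required for 50% inhibition of growth. TGI marks complete inhibition of growth.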

Assays:
Test in all cases: DTP human tumour cell line panel, 48 h
SK-MEL-2 melanoma = tested on: SK-MEL-2 melanoma
K-562 leukemia = tested on: K-562 leukemia
SF-268 CNS = tested on: SF-268 CNS
CAKI-1 renal = tested on: CAKI-1 renal
HS 578T breast = tested on: HS 578T breast
SNB-19 CNS = tested on: SNB-19 CNS
MDA-MB-435 = tested on: MDA-MB-435
HOP-62 NSCLC = tested on: HOP-62 NSCLC
HL-60(TB) leukemia = tested on: HL-60(TB) leukemia
SK-OV-3 ovarian = tested on: SK-OV-3 ovarian
UO-31 renal = tested on: UO-31 renal
RPMI-8226 leukemia = tested on: RPMI-8226 leukemia
A498 renal = tested on: A498 renal
HCT-15 colon = tested on: HCT-15 colon
IGROV1 ovarian = tested on: IGROV1 ovarian
OVCAR-3 ovarian = tested on: OVCAR-3 ovarian
UACC-62 melanoma = tested on: UACC-62 melanoma
MDA-N = tested on: MDA-N
SNB-75 CNS = tested on: SNB-75 CNS
SF-295 CNS = tested on: SF-295 CNS
MDA-MB-231 breast = tested on: MDA-MB-231 breast
ACHN renal = tested on: ACHN renal
TK-10 renal = tested on: TK-10 renal
MALME-3M melanoma = tested on: MALME-3M melanoma
HCT-116 colon = tested on: HCT-116 colon
SK-MEL-28 melanoma = tested on: SK-MEL-28 melanoma
SW-620 colon = tested on: SW-620 colon
NCI/ADR-RES ovarian = tested on: NCI/ADR-RES ovarian
NCI-H522 lung = tested on: NCI-H522 lung
COLO 205 colon = tested on: COLO 205 colon
CCRF-CEM leukemia = tested on: CCRF-CEM leukemia
OVCAR-5 ovarian = tested on: OVCAR-5 ovarian
M14 melanoma = tested on: M14 melanoma
HCC-2998 colon = tested on: HCC-2998 colon
HOP-92 NSCLC = tested on: HOP-92 NSCLC
NCI-H23 lung = tested on: NCI-H23 lung
SK-MEL-5 melanoma = tested on: SK-MEL-5 melanoma
LOX IMVI melanoma = tested on: LOX IMVI melanoma
A549 NSCLC = tested on: A549 NSCLC
NCI-H460 lung = tested on: NCI-H460 lung
DU-145 prostate = tested on: DU-145 prostate
786-0 renal = tested on: 786-0 renal
HT29 colon = tested on: HT29 colon
UACC-257 melanoma = tested on: UACC-257 melanoma
SN12C renal = tested on: SN12C renal
MCF7 breast = tested on: MCF7 breast
EKVX NSCLC = tested on: EKVX NSCLC
RXF 393 renal = tested on: RXF 393 renal
BT-549 breast = tested on: BT-549 breast
MOLT-4 leukemia = tested on: MOLT-4 leukemia
OVCAR-4 ovarian = tested on: OVCAR-4 ovarian
U251 CNS = tested on: U251 CNS
T-47D breast = tested on: T-47D breast
OVCAR-8 ovarian = tested on: OVCAR-8 ovarian
KM12 colon = tested on: KM12 colon
PC-3 prostate = tested on: PC-3 prostate
SR leukemia = tested on: SR leukemia
SF-539 CNS = tested on: SF-539 CNS

C[n+]1ccc(-c2c3nc(c(-c4ccc5c(ccc[n+]5C)c4)c4ccc([nH]4)c(-c4cc[n+](C)cc4)c4nc(c(-c5ccc6c(ccc[n+]6C)c5)c5ccc2[nH]5)C=C4)C=C3)cc1 showed a GI50 (SK-MEL-2 melanoma) of 22.4 µM, a TGI (SK-MEL-2 melanoma) greater than 50 µM and a GI50 (K-562 leukemia) of 31.4 µM. For the same compound, the TGI (K-562 leukemia) was greater than 50 µM, the GI50 (SF-268 CNS) was greater than 50 µM and the TGI (SF-268 CNS) was greater than 50 µM. For the same compound, the GI50 (CAKI-1 renal) was greater than 50 µM, the TGI (CAKI-1 renal) was greater than 50 µM and the GI50 (HS 578T breast) was 42.4 µM. It also gave a TGI (HS 578T breast) greater than 50 µM, a GI50 (SNB-19 CNS) of 24.2 µM and a TGI (SNB-19 CNS) greater than 50 µM. For the same compound, the GI50 (MDA-MB-435) was 12.9 µM, the TGI (MDA-MB-435) was 36.9 µM and the GI50 (HOP-62 NSCLC) was 13.3 µM. For the same compound, the TGI (HOP-62 NSCLC) was greater than 50 µM, the GI50 (HL-60(TB) leukemia) was 9.19 µM and the TGI (HL-60(TB) leukemia) was 17.2 µM. The GI50 (SK-OV-3 ovarian) was greater than 50 µM, the TGI (SK-OV-3 ovarian) was greater than 50 µM and the GI50 (UO-31 renal) was 19.9 µM. It also gave a TGI (UO-31 renal) greater than 50 µM, a GI50 (RPMI-8226 leukemia) greater than 50 µM and a TGI (RPMI-8226 leukemia) greater than 50 µM. For the same compound, the GI50 (A498 renal) was 27.2 µM, the TGI (A498 renal) was greater than 50 µM and the GI50 (HCT-15 colon) was greater than 50 µM. It also gave a TGI (HCT-15 colon) greater than 50 µM, a GI50 (IGROV1 ovarian) greater than 50 µM and a TGI (IGROV1 ovarian) greater than 50 µM. For the same compound, the GI50 (OVCAR-3 ovarian) was 7.91 µM, the TGI (OVCAR-3 ovarian) was 40.5 µM and the GI50 (UACC-62 melanoma) was greater than 50 µM. It also gave a TGI (UACC-62 melanoma) greater than 50 µM, a GI50 (MDA-N) of 30 µM and a TGI (MDA-N) greater than 50 µM. For the same compound, the GI50 (SNB-75 CNS) was 5.09 µM, the TGI (SNB-75 CNS) was 26.1 µM and the GI50 (SF-295 CNS) was 40.5 µM. The TGI (SF-295 CNS) was greater than 50 µM, the GI50 (MDA-MB-231 breast) was 16.3 µM and the TGI (MDA-MB-231 breast) was greater than 50 µM. It also gave a GI50 (ACHN renal) of 27.9 µM, a TGI (ACHN renal) greater than 50 µM and a GI50 (TK-10 renal) of 10.1 µM. For the same compound, the TGI (TK-10 renal) was greater than 50 µM, the GI50 (MALME-3M melanoma) was greater than 50 µM and the TGI (MALME-3M melanoma) was greater than 50 µM. It also gave a GI50 (HCT-116 colon) greater than 50 µM, a TGI (HCT-116 colon) greater than 50 µM and a GI50 (SK-MEL-28 melanoma) of 28.5 µM. It also gave a TGI (SK-MEL-28 melanoma) greater than 50 µM, a GI50 (SW-620 colon) greater than 50 µM and a TGI (SW-620 colon) greater than 50 µM. For the same compound, the GI50 (NCI/ADR-RES ovarian) was greater than 50 µM, the TGI (NCI/ADR-RES ovarian) was greater than 50 µM and the GI50 (NCI-H522 lung) was greater than 50 µM. It also gave a TGI (NCI-H522 lung) greater than 50 µM, a GI50 (COLO 205 colon) of 23.1 µM and a TGI (COLO 205 colon) greater than 50 µM. For the same compound, the GI50 (CCRF-CEM leukemia) was greater than 50 µM, the TGI (CCRF-CEM leukemia) was greater than 50 µM and the GI50 (OVCAR-5 ovarian) was greater than 50 µM. For the same compound, the TGI (OVCAR-5 ovarian) was greater than 50 µM, the GI50 (M14 melanoma) was greater than 50 µM and the TGI (M14 melanoma) was greater than 50 µM. It also gave a GI50 (HCC-2998 colon) of 49.7 µM, a TGI (HCC-2998 colon) greater than 50 µM and a GI50 (HOP-92 NSCLC) of 25.1 µM. The TGI (HOP-92 NSCLC) was greater than 50 µM, the GI50 (NCI-H23 lung) was greater than 50 µM and the TGI (NCI-H23 lung) was greater than 50 µM. The GI50 (SK-MEL-5 melanoma) was 17.6 µM, the TGI (SK-MEL-5 melanoma) was greater than 50 µM and the GI50 (LOX IMVI melanoma) was greater than 50 µM. For the same compound, the TGI (LOX IMVI melanoma) was greater than 50 µM, the GI50 (A549 NSCLC) was 38.1 µM and the TGI (A549 NSCLC) was greater than 50 µM. For the same compound, the GI50 (NCI-H460 lung) was 16.9 µM, the TGI (NCI-H460 lung) was greater than 50 µM and the GI50 (DU-145 prostate) was 30.7 µM. It also gave a TGI (DU-145 prostate) greater than 50 µM, a GI50 (786-0 renal) greater than 50 µM and a TGI (786-0 renal) greater than 50 µM. It also gave a GI50 (HT29 colon) greater than 50 µM, a TGI (HT29 colon) greater than 50 µM and a GI50 (UACC-257 melanoma) of 12.9 µM. It also gave a TGI (UACC-257 melanoma) of 48.5 µM, a GI50 (SN12C renal) greater than 50 µM and a TGI (SN12C renal) greater than 50 µM. It also gave a GI50 (MCF7 breast) of 42.5 µM, a TGI (MCF7 breast) greater than 50 µM and a GI50 (EKVX NSCLC) greater than 50 µM. It also gave a TGI (EKVX NSCLC) greater than 50 µM, a GI50 (RXF 393 renal) of 13.9 µM and a TGI (RXF 393 renal) greater than 50 µM. For the same compound, the GI50 (BT-549 breast) was 35.9 µM, the TGI (BT-549 breast) was greater than 50 µM and the GI50 (MOLT-4 leukemia) was greater than 50 µM. It also gave a TGI (MOLT-4 leukemia) greater than 50 µM, a GI50 (OVCAR-4 ovarian) of 27.5 µM and a TGI (OVCAR-4 ovarian) greater than 50 µM. For the same compound, the GI50 (U251 CNS) was 28.8 µM, the TGI (U251 CNS) was greater than 50 µM and the GI50 (T-47D breast) was 12.4 µM. For the same compound, the TGI (T-47D breast) was 48.7 µM, the GI50 (OVCAR-8 ovarian) was greater than 50 µM and the TGI (OVCAR-8 ovarian) was greater than 50 µM. For the same compound, the GI50 (KM12 colon) was 23.1 µM, the TGI (KM12 colon) was greater than 50 µM and the GI50 (PC-3 prostate) was 49.5 µM. It also gave a TGI (PC-3 prostate) greater than 50 µM.

In the case of [N-]=[N+]=NC1=C(c2ccccc2)C(=O)c2cccc3cccc1c23, the TGI (SK-MEL-2 melanoma) is reported as greater than 100 µM, the TGI (K-562 leukemia) is reported as greater than 100 µM and the TGI (SF-268 CNS) is reported as greater than 100 µM. The TGI (CAKI-1 renal) was greater than 100 µM, the TGI (HS 578T breast) was 48.6 µM and the TGI (SNB-19 CNS) was greater than 100 µM. For the same compound, the TGI (MDA-MB-435) was greater than 100 µM, the TGI (HOP-62 NSCLC) was 91.1 µM and the TGI (HL-60(TB) leukemia) was greater than 100 µM. For the same compound, the TGI (SK-OV-3 ovarian) was greater than 100 µM, the TGI (SR leukemia) was greater than 100 µM and the TGI (UO-31 renal) was greater than 100 µM. For the same compound, the TGI (RPMI-8226 leukemia) was greater than 100 µM, the TGI (A498 renal) was 8.29 µM and the TGI (HCT-15 colon) was greater than 100 µM. The TGI (IGROV1 ovarian) was 95.2 µM, the TGI (OVCAR-3 ovarian) was greater than 100 µM and the TGI (UACC-62 melanoma) was 34.9 µM. The TGI (MDA-N) was greater than 100 µM, the TGI (SNB-75 CNS) was 76.5 µM and the TGI (SF-295 CNS) was 26.5 µM. The TGI (TK-10 renal) was 74.6 µM, the TGI (MALME-3M melanoma) was greater than 100 µM and the TGI (HCT-116 colon) was greater than 100 µM. The TGI (SF-539 CNS) was 91.1 µM, the TGI (SK-MEL-28 melanoma) was greater than 100 µM and the TGI (SW-620 colon) was greater than 100 µM. It also gave a TGI (NCI/ADR-RES ovarian) greater than 100 µM, a TGI (COLO 205 colon) greater than 100 µM and a TGI (CCRF-CEM leukemia) greater than 100 µM. For the same compound, the TGI (OVCAR-5 ovarian) was greater than 100 µM, the TGI (M14 melanoma) was greater than 100 µM and the TGI (HCC-2998 colon) was greater than 100 µM. For the same compound, the TGI (HOP-92 NSCLC) was 91.1 µM, the TGI (NCI-H23 lung) was greater than 100 µM and the TGI (SK-MEL-5 melanoma) was 18.1 µM. For the same compound, the TGI (LOX IMVI melanoma) was greater than 100 µM, the TGI (A549 NSCLC) was greater than 100 µM and the TGI (NCI-H460 lung) was 28.7 µM. The TGI (DU-145 prostate) was greater than 100 µM, the TGI (786-0 renal) was 88.1 µM and the TGI (HT29 colon) was 27 µM. The TGI (UACC-257 melanoma) was 29.2 µM, the TGI (SN12C renal) was greater than 100 µM and the TGI (MCF7 breast) was greater than 100 µM. The TGI (RXF 393 renal) was 60.6 µM, the TGI (BT-549 breast) was 34.1 µM and the TGI (MOLT-4 leukemia) was 21.1 µM. The TGI (OVCAR-4 ovarian) was greater than 100 µM, the TGI (U251 CNS) was greater than 100 µM and the TGI (T-47D breast) was 82.1 µM. For the same compound, the TGI (KM12 colon) was greater than 100 µM and the TGI (PC-3 prostate) was greater than 100 µM.
